Data on nine compounds can be found in patent US12661410B2, “Compounds for targeted degradation of RET” (C4 Therapeutics, Inc., priority 2020, dated 2026).

Assay [1] addresses T1, RET(KD: 658-1114 G810R) (Homo sapiens, UniProt P07949, G810R).
T1 construct: 658-1114; expressed in transfected cells; host or cells: 293T.165 (293T cells, generated in-house)
T1 sequence (P07949 658-1114 G810R): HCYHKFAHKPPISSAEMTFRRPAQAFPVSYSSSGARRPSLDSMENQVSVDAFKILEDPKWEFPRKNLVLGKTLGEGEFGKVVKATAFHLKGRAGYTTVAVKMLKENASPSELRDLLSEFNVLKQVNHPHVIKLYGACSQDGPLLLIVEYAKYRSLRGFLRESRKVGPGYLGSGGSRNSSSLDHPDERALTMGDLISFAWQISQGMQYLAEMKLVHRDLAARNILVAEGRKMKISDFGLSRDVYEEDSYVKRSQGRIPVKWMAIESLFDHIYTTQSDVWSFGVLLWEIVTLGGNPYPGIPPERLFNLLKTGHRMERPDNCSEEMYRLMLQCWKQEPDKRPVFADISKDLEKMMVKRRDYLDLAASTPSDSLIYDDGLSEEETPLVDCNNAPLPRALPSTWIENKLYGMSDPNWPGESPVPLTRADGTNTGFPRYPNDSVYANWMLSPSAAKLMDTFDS
Description: HiBiT-Degradation, RET G810R degradation assay (Nano-Glo HiBiT Lytic), 293T.165 cells. As to conditions: for Emax / DC50: 6.0 hours; for Emax: % remaining protein, read-out: 293T.165 RET(KD: 658-1114 G810R) 6.0 hours (Emax); for DC50: half-maximal degradation concentration, read-out: 293T.165 RET(KD: 658-1114 G810R) 6.0 hours (DC50). Format: cell-based. In short, it runs like this:
(§1)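 HEK293T lines stably expressing HiBiT-tagged RET kinase domain (WT: 293T.144; G810R: 293T.165) were treated with degraders for 6 h in duplicate, 11-point half-log series from 10 μM top dose. Lysis with Nano-Glo HiBiT Lytic reagent, luminescence read; DC50 and Emax (% remaining protein) derived from dose-response curves.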
A general note: HiBiT is a short tag that completes a luciferase, so light tracks the accessible tagged protein.

For assay [2], the target named is T2, RET (658-1114) (Homo sapiens, UniProt P07949).
T2 construct: 658-1114; expressed in transfected cells; host or cells: 293T.144 (293T cells, generated in-house)
T2 sequence (P07949 658-1114): T1 sequence (P07949 658-1114 G810R) with R153G
As to the kind of experiment: HiBiT-Degradation, RET wild-type degradation assay (Nano-Glo HiBiT Lytic), 293T.144 cells. It is filed as cell-based. Conditions: for Emax / DC50: 6.0 hours; for Emax: % remaining protein, read-out: 293T.144 RET (658-1114) 6.0 hours (Emax); for DC50: half-maximal degradation concentration, read-out: 293T.144 RET (658-1114) 6.0 hours (DC50). In a few lines: as §1

Numbering of substitutions follows the chain as printed.

By Emax is commonly meant the greatest response seen or fitted, relative to the assay's reference. The term DC50 denotes the concentration giving 50% degradation. On to `Cc1ccnc(C2CCN(c3ccc(-c4nc(-c5cnn(C6CCN(C(=O)CC7(O)CCN(c8ccc(NC9CCC(=O)NC9=O)cc8F)CC7)CC6)c5)cn5ncc(C#N)c45)cn3)CC2)n1` (stereo not drawn) [Compound 115, 6-[1-[1-[2-[1-[4-[(2,6-dioxo-3-piperidyl)amino]-2-fluoro-phenyl]-4-hydroxy-4-piperidyl]acetyl]-4-piperidyl]pyrazol-4-yl]-4-[6-[4-(4-methylpyrimidin-2-yl)-1-piperidyl]-3-pyridyl]pyrazolo[1,5-a]pyrazine-3-carbonitrile], for which, in assay [1], the “293T.165 RET(KD: 658-1114 G810R) 6.0 hours (IP) [nM]” value is “++++ (<50 nM = ++++)”, the Emax is less than 30% and the DC50 was less than 50 nM. In assay [2], the “293T.144 RET (658-1114) 6.0 hours (IP) [nM]” value (“293T.144 RET” below) is recorded as “++++ (<50 nM = ++++)”, the Emax was less than 30% and the DC50 is less than 50 nM.
For the compound `N#Cc1cnn2cc(-c3cnn(C4CCN(C(=O)CC5(O)CCN(c6ccc(NC7CCC(=O)NC7=O)cc6F)CC5)CC4)c3)nc(-c3ccc(N4CCN(C(=O)c5ccon5)CC4)nc3)c12` (stereo not drawn) [Compound 116, 6-(1-(1-(2-(1-(4-((2,6-dioxopiperidin-3-yl)amino)-2-fluorophenyl)-4-hydroxypiperidin-4-yl)acetyl)piperidin-4-yl)-1H-pyrazol-4-yl)-4-(6-(4-(isoxazole-3-carbonyl)piperazin-1-yl)pyridin-3-yl)pyrazolo[1,5-a]pyrazine-3-carbonitrile], in assay [1], the “293T.165 RET(KD: 658-1114 G810R) 6.0 hours (IP) [nM]” value is listed as “++++ (<50 nM = ++++)”, the Emax is less than 30% and the DC50 is less than 50 nM. For the same compound, in assay [2], the “293T.144 RET” value is “++++ (<50 nM = ++++)”, the Emax is less than 30% and the DC50 was less than 50 nM.
For `N#Cc1cnn2cc(-c3cnn(C4CCN(C(=O)CC5(O)CCN(c6ccc(NC7CCC(=O)NC7=O)cc6F)CC5)CC4)c3)nc(-c3ccc(N4CCC(O)(Cc5ccccc5)CC4)nc3)c12` (stereo not drawn) [Compound 117, 4-[6-(4-benzyl-4-hydroxy-1-piperidyl)-3-pyridyl]-6-[1-[1-[2-[1-[4-[(2,6-dioxo-3-piperidyl)amino]-2-fluoro-phenyl]-4-hydroxy-4-piperidyl]acetyl]-4-piperidyl]pyrazol-4-yl]pyrazolo[1,5-a]pyrazine-3-carbonitrile], in assay [1], the “293T.165 RET(KD: 658-1114 G810R) 6.0 hours (IP) [nM]” value was “++++ (<50 nM = ++++)”, the Emax was less than 30% and the DC50 is less than 50 nM. In assay [2], the “293T.144 RET” value is given as “++++ (<50 nM = ++++)”, the Emax is less than 30% and the DC50 is less than 50 nM.
For `CCC1(C(=O)NC(C)C)CCN(c2ccc(-c3nc(-c4cnn(C5CCN(CC6(O)CCN(c7ccc(NC8CCC(=O)NC8=O)cc7F)CC6)CC5)c4)cn4ncc(C#N)c34)cn2)CC1` (stereo not drawn) [Compound 118, 1-(5-(3-cyano-6-(1-(1-((1-(4-((2,6-dioxopiperidin-3-yl)amino)-2-fluorophenyl)-4-hydroxypiperidin-4-yl)methyl)piperidin-4-yl)-1H-pyrazol-4-yl)pyrazolo[1,5-a]pyrazin-4-yl)pyridin-2-yl)-4-ethyl-N-isopropylpiperidine-4-carboxamide], in assay [1], the “293T.165 RET(KD: 658-1114 G810R) 6.0 hours (IP) [nM]” value is “++++ (<50 nM = ++++)”, the Emax is less than 30% and the DC50 is less than 50 nM. For the same compound, in assay [2], the “293T.144 RET” value is on record as “++++ (<50 nM = ++++)”, the Emax is less than 30% and the DC50 is less than 50 nM.
With `CCC1(C(=O)NC(C)C)CCN(c2ncc(-c3nc(-c4cnn(C5CCN(C(=O)CC6(O)CCN(c7ccc(NC8CCC(=O)NC8=O)cc7F)CC6)CC5)c4)cn4ncc(C#N)c34)cc2F)CC1` (stereo not drawn) [Compound 119, 1-(5-(3-cyano-6-(1-(1-(2-(1-(4-((2,6-dioxopiperidin-3-yl)amino)-2-fluorophenyl)-4-hydroxypiperidin-4-yl)acetyl)piperidin-4-yl)-1H-pyrazol-4-yl)pyrazolo[1,5-a]pyrazin-4-yl)-3-fluoropyridin-2-yl)-4-ethyl-N-isopropylpiperidine-4-carboxamide], in assay [1], the “293T.165 RET(KD: 658-1114 G810R) 6.0 hours (IP) [nM]” value is listed as “++++ (<50 nM = ++++)”, the Emax is less than 50% and the DC50 was less than 100 nM. Also, in assay [2], the “293T.144 RET” value is given as “++++ (<50 nM = ++++)”, the Emax was less than 30% and the 50% degradation concentration (DC50) is less than 50 nM.
Consider `CCC1(C(=O)NC(C)C)CCN(c2ncc(-c3nc(-c4cnn(C5CCN(C(=O)CC6(O)CCN(c7ccc(NC8CCC(=O)NC8=O)cc7Cl)CC6)CC5)c4)cn4ncc(C#N)c34)cc2F)CC1` (stereo not drawn) [Compound 120, 1-[5-[6-[1-[1-[2-[1-[2-chloro-4-[(2,6-dioxo-3-piperidyl)amino]phenyl]-4-hydroxy-4-piperidyl]acetyl]-4-piperidyl]pyrazol-4-yl]-3-cyano-pyrazolo[1,5-a]pyrazin-4-yl]-3-fluoro-2-pyridyl]-4-ethyl-N-isopropyl-piperidine-4-carboxamide], for which, in assay [1], the “293T.165 RET(KD: 658-1114 G810R) 6.0 hours (IP) [nM]” value was “++++ (<50 nM = ++++)”, the Emax was less than 50% and the DC50 was less than 100 nM. Also, in assay [2], the “293T.144 RET” value is “++++ (<50 nM = ++++)”, the Emax is less than 30% and the DC50 is less than 50 nM.
Take `CCC1(C(=O)NC(C)C)CCN(c2ccc(-c3nc(-c4cnn(C5CCN(C(=O)CC6(O)CCN(c7ccc(NC8CCC(=O)NC8=O)cc7F)CC6)CC5)c4)cn4ncc(C#N)c34)cc2)CC1` (stereo not drawn) [Compound 121, 1-(4-(3-Cyano-6-(1-(1-(2-(1-(4-((2,6-dioxopiperidin-3-yl)amino)-2-fluorophenyl)-4-hydroxypiperidin-4-yl)acetyl)piperidin-4-yl)-1H-pyrazol-4-yl)pyrazolo[1,5-a]pyrazin-4-yl)phenyl)-4-ethyl-N-isopropylpiperidine-4-carboxamide]: in assay [1], the “293T.165 RET(KD: 658-1114 G810R) 6.0 hours (IP) [nM]” value is listed as “++++ (<50 nM = ++++)”, the Emax was less than 30% and the DC50 is less than 50 nM. Further, in assay [2], the “293T.144 RET” value is listed as “++++ (<50 nM = ++++)”, the Emax is less than 30% and the half-maximal degradation concentration (DC50) was less than 50 nM.
For the compound `CCC1(C(=O)NC2CCCC2)CCN(c2ccc(-c3nc(-c4cnn([C@H]5CC[C@H](N6CCC(c7ccc(N[C@H]8CCC(=O)NC8=O)cc7F)CC6)CC5)c4)cn4ncc(C#N)c34)cn2)CC1` [Compound 141, 1-[5-[3-cyano-6-[1-[4-[4-[4-[[(3S)-2,6-dioxo-3-piperidyl]amino]-2-fluoro-phenyl]-1-piperidyl]cyclohexyl]pyrazol-4-yl]pyrazolo[1,5-a]pyrazin-4-yl]-2-pyridyl]—N-cyclopentyl-4-ethyl-piperidine-4-carboxamide], in assay [1], the “293T.165 RET(KD: 658-1114 G810R) 6.0 hours (IP) [nM]” value is “++++ (<50 nM = ++++)”, the Emax is less than 30% and the DC50 is less than 50 nM. For the same compound, in assay [2], the “293T.144 RET” value is listed as “++++ (<50 nM = ++++)”, the Emax was less than 30% and the DC50 is less than 50 nM.
With `CCC1(C(=O)NC2CCCC2)CCN(c2ccc(-c3nc(-c4cnn([C@H]5CC[C@H](N6CCC(c7ccc(N[C@@H]8CCC(=O)NC8=O)cc7F)CC6)CC5)c4)cn4ncc(C#N)c34)cn2)CC1` [Compound 142, 1-[5-[3-cyano-6-[1-[4-[4-[4-[[(3R)-2,6-dioxo-3-piperidyl]amino]-2-fluoro-phenyl]-1-piperidyl]cyclohexyl]pyrazol-4-yl]pyrazolo[1,5-a]pyrazin-4-yl]-2-pyridyl]-N-cyclopentyl-4-ethyl-piperidine-4-carboxamide], in assay [1], the “293T.165 RET(KD: 658-1114 G810R) 6.0 hours (IP) [nM]” value is “++++ (<50 nM = ++++)”, the Emax was less than 30% and the DC50 was less than 50 nM. Also, in assay [2], the “293T.144 RET” value is given as “++++ (<50 nM = ++++)”, the Emax is less than 30% and the DC50 was less than 50 nM.
